# Legend:
# Settings in all cases: pH 7.4; 22 °C
# [1] = biological target: T1, Monoacylglycerol lipase ABHD6 (Mus musculus, UniProt Q8R2Y0); assay: Serine Hydrolase Activity Assay
# T1 sequence (Q8R2Y0 whole entry): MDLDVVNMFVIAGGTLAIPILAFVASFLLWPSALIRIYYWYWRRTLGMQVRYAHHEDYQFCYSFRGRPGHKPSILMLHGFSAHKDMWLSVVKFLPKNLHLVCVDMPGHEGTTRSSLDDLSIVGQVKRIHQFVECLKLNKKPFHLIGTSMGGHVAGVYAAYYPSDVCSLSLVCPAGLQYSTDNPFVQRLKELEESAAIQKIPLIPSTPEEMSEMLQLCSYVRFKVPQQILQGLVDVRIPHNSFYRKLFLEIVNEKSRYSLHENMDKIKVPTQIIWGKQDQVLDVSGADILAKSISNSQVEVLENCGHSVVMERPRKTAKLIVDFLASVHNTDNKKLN
# Excerpt: (§1) Serine hydrolase targets were recombinantly expressed in COS-7 cells by transient transfection. IC50 values were obtained by competitive ABPP with FP-rhodamine.
# [2] = biological target: T2, Neutral cholesterol ester hydrolase 1 (Mus musculus, UniProt Q8BLF1); assay: Serine Hydrolase Activity Assay
# T2 sequence (Q8BLF1 whole entry): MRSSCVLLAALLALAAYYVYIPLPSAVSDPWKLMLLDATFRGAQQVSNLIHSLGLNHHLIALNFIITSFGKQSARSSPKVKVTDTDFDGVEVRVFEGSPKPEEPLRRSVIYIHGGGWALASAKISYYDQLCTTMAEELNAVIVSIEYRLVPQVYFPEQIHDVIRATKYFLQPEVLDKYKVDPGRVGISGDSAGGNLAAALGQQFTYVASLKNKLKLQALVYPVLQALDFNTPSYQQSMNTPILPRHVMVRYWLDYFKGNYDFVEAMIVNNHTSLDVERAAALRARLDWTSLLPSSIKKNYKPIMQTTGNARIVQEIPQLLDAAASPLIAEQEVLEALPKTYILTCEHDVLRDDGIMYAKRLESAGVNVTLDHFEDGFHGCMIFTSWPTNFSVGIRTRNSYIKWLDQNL
# Excerpt: as §1
# [3] = biological target: T3, Monoglyceride lipase (Mus musculus, UniProt O35678); assay: Serine Hydrolase Activity Assay
# T3 sequence (O35678 whole entry): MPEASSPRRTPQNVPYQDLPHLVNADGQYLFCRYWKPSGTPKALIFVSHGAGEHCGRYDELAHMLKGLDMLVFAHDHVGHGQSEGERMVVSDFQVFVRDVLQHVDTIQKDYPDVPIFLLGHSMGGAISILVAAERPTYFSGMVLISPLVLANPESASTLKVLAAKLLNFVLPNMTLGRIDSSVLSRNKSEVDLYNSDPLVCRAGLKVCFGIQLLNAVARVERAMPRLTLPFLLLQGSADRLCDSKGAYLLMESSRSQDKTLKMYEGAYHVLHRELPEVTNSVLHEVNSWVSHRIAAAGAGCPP
# Excerpt: as §1
# [4] = biological target: T4, Fatty-acid amide hydrolase 1 (Mus musculus, UniProt O08914); assay: FAAH Competitive ABPP Using FP-Rhodamine
# T4 sequence (O08914 whole entry): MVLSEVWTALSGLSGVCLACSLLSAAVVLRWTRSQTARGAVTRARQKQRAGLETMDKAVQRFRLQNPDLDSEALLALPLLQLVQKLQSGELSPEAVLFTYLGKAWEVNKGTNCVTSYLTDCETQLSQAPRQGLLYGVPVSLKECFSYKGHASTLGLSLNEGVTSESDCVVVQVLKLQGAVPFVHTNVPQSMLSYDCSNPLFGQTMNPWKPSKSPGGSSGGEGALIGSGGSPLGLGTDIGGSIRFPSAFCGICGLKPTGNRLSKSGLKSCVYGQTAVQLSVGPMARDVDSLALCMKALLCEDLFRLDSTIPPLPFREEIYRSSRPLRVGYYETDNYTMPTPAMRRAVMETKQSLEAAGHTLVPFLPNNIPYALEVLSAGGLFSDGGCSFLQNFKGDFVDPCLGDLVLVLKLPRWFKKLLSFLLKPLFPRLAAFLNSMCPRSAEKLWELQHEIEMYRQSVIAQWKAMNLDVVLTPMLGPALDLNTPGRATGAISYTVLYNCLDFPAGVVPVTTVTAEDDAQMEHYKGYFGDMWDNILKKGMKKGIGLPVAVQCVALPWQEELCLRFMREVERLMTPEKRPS
# Protocol: Mouse brain membrane proteomes were preincubated with varying concentrations of inhibitors for 10 min prior to the addition of a rhodamine-tagged fluorophosphonate (FP-rhodamine). Reactions were quenched after 10 min, subjected to SDS-PAGE, and visualized in-gel using a flatbed fluorescence scanner. Labeled proteins were quantified by measuring integrated band intensities. Dose response curves obtained from three trials at each inhibitor concentration were fit using Prism software (GraphPad) to
smiles,measurement,setting,value
"CN(C)C(=O)n1nnnc1Cc1ccc(-c2ccccc2)cc1 [N,N-dimethyl-5-[(4-phenylphenyl)methyl]-1H-1,2,3,4-tetrazole-1-carboxamide]",IC50,[1],0.09 nM
same,IC50,[2],8.2 nM
same,IC50,[3],5.3 nM
same,IC50,[4],13 nM
